Our source for the EC50, IC50 and outcome values is PubChem BioAssay AID179 (DTP/NCI, 2004).

The subject of the test is CEM cells HIV-1 protection, formazan growth assay. Nature of the test: NCI AIDS Antiviral Assay. The settings on record: for IC50: measured here: growth of uninfected CEM cells. Summed up: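 Screen of anti-HIV-1 activity in human CEM cells using a formazan-based growth measurement at five drug concentrations. Hits with 50% or greater protection were repeated, and confirmation required reproducible complete protection.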

Several values for one entry are separate records, joined by “and”; a condition that tells them apart may be missing. Equal values may be shown once. Activity calls are given as the source filed them.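 The calls were made as follows: active = compounds giving half or more protection of infected cells from virus-caused growth loss, again on retest; inactive = the rest.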

A word on the EC50: it is the concentration giving half of the maximal effect. By IC50 is commonly meant the concentration that gives 50% inhibition. The low end stands for inhibition by little substance, the high end for a need for much substance. Turning to `OC[C@@H]1C(O)[C@H](O)[C@H]2C(O)CCN12` (some centres undefined), the EC50 is more than 1320 µM and the IC50 was more than 1320 µM.

For the molecule `O=C1NC(=O)C2C(=O)NC(=O)C1C2Cc1ccco1` (centres undefined), the EC50 was more than 955 µM and the IC50 is more than 955 µM.

Turning to `COc1ccc(-c2cc(C3CC3)nc(SCC(=O)O)c2C#N)cc1`, the EC50 is more than 200 µM and the IC50 came to 39.8 µM.

As to `O=c1c(O)c(-c2ccc(O)c(O)c2)oc2cc(O)ccc12`, the EC50 is more than 550 µM; the IC50 is 55 µM and 25.7 µM.

Take `Cc1nsc2cc(Cl)n(C)c(=O)c12`: the EC50 was more than 6.76 µM and the IC50 is more than 6.76 µM.

Take `COc1ccc2c(c1OC)[C@]13CCCC[C@@H]1[C@H](C2)N(C)CC3`: the result was inactive.

Regarding `COc1ccc(/C=C(/NC(=O)c2ccccc2)C(=O)Nc2ccccc2)cc1OC`, the EC50 was more than 200 µM and the IC50 is more than 200 µM.

Consider `Cc1cc(N(CCC#N)CCC#N)ccc1N=Nc1ccc(C(=O)O)cc1`, for which the EC50 is more than 100 µM and the IC50 was more than 100 µM.

For `O=C(O)[C@H](Cc1ccccc1)NCCN1CCC[C@H]1C(=O)O`, the EC50 was more than 200 µM and the IC50 was more than 200 µM.

For `COc1cc2c(cc1OC)C1Cc3sccc3CN1CC2` (centres undefined), the outcome was inactive.

Take `CC(C)(C)C1=C(Br)C(O)(C(C)(C)C)OP1(=O)c1ccccc1` (centres undefined): the EC50 is more than 200 µM and the IC50 stood at 151 µM.

With `CCCCCCCCCCCC(O)=C1C(=O)CC(O)CC1=O` (centres undefined), the EC50 was more than 17 µM and the IC50 was more than 17 µM.

For `C1CSCCSCCSCCSCCSCCS1`, the EC50 is more than 14.5 µM and the IC50 is more than 14.5 µM.

Take `Cc1cn(C2CC(F)C(COC(=O)CCCCCCCCCCCN=[N+]=[N-])O2)c(=O)[nH]c1=O` (centres undefined): the EC50 was 0.000631 µM and the IC50 amounted to 2 µM.

As for `CCN(CC)C(=S)N=Nc1c(O)[nH]c2ccccc12`, the EC50 was more than 200 µM and the IC50 came out at 1.1 µM.

As to `N#CCCC(CC#N)N1CCN(C(CC#N)CCC#N)CC1` (centres undefined), the EC50 was more than 200 µM and the IC50 is more than 200 µM.

`NC(N)=N/N=C/c1ccc[nH]1`: the EC50 was more than 200 µM and the IC50 was more than 200 µM.

Consider `O=c1c2n[nH]nc2nc2n1CC(c1ccccc1)S2` (centres undefined), for which the result was inactive.

Turning to `Cc1cn(C2OC(CO)CC2F)c(=O)[nH]c1=O` (centres undefined), the EC50 is more than 646 µM and the IC50 was more than 646 µM.

On to `CC(C)(C)OC(=O)CN1CCN(CC(=O)N2CCN(C(=O)OCc3ccccc3)CC2)CCN(CC(=O)OC(C)(C)C)CCN(CC(=O)N2CCN(C(=O)OCc3ccccc3)CC2)CC1`, for which the EC50 was more than 100 µM and the IC50 was 1.29 µM.

On to `COc1cc2c(c(OC)c1OC)-c1ccc(SC)c(=O)cc1C(NC(=O)c1ccccc1)CC2` (centres undefined), for which the EC50 was more than 2 µM and the IC50 amounted to 0.000708 µM.

In the case of `CN1CCC/C1=C1/C(=O)N(c2ccccc2)N=C1c1ccc[nH]1`, the EC50 was 191 µM and the IC50 was more than 200 µM.

`CCCc1cc(=O)oc2c3c(c4c(c12)OC(C)(C)C=C4)O[C@H](C)[C@@H](C)[C@@H]3O`: the EC50 is 4.68 µM and the IC50 is 16.2 µM.

On to `COc1cc(/C=C2/SC(c3ccccc3)N(c3ccc(NC(C)=O)cc3)C2=O)cc(OC)c1OC` (centres undefined), for which the EC50 was more than 200 µM and the IC50 stood at 117 µM.

Turning to `O=C1CSC(c2ccccc2O)N1c1ccc(-n2c(-c3ccccc3)nc3ccccc3c2=O)cc1` (centres undefined), the EC50 was more than 200 µM and the IC50 stood at 11.2 µM.

For `O=[N+]([O-])C(=C(N1CCCCC1)N1CCCCC1)/C(Cl)=C(\Cl)Br`, the EC50 is more than 200 µM and the IC50 is 1.29 µM.

For the molecule `C[C@@H]1C2(O)CC34CC(=O)OC3(C[C@@H](O)[C@H]4C)C1(C)CO2` (some centres undefined), the EC50 was more than 891 µM and the IC50 was more than 891 µM.

Turning to `Cc1cc2c(C(C)C)c(O)c(O)c(C=Nc3ccccc3)c2c(O)c1-c1c(C)cc2c(C(C)C)c(O)c(O)c(C=Nc3ccccc3)c2c1O`, the EC50 was 0.55 µM and the IC50 turned out to be 0.562 µM.

For `Cc1[nH]cc2c1C(c1ccccc1)=NCC(=O)N2`, the EC50 is more than 200 µM and the 50% inhibitory concentration (IC50) was more than 200 µM.

Turning to `CCOC(=O)[C@@H]1OC(c2ccccc2)O[C@H]1C(=O)OCC`, the EC50 is more than 200 µM and the IC50 is more than 200 µM.

Turning to `CC(=O)O[C@]1(C)OC(=O)[C@@H](CC(C)C)N1[N+](=O)[O-]`, the result was inactive.

Regarding `COC(=O)c1ccc(COC(=O)N2C=CCC2C(=O)O)cc1` (centres undefined), the EC50 is more than 200 µM and the half-inhibitory concentration (IC50) is more than 200 µM.

For `N=CCCN(CCC=N)c1ccc(/C=C2\CN(NC(=O)c3ccc(Cl)cc3)C(c3ccccc3)=N2)cc1`, the EC50 was more than 70.8 µM and the IC50 is more than 70.8 µM.

On to `COc1cc2c(cc1OC)/C(=C/c1ccc(N(C)C)cc1)C=C2`, for which the EC50 was more than 17 µM and the IC50 is more than 17 µM.

Turning to `C=C=C(C)[Si](C)(C)C`, the EC50 was more than 200 µM and the IC50 was more than 200 µM.

For `CO/C(=N\N=C(/C)C(F)(F)F)c1ccncc1`, the EC50 was more than 200 µM and the IC50 is more than 200 µM.

As to `COc1c2c(nc3ccccc13)-c1cc(C(CC(=O)OC(C)(C)C)C(=O)OC(C)C)c(CO)c(=O)n1C2` (centres undefined), the EC50 is more than 28.8 µM and the IC50 was found to be 0.479 µM.

Regarding `OC(C1CO1)C(O)C1CO1` (centres undefined), the EC50 was more than 427 µM and the IC50 was determined as 0.891 µM.

As for `O=[N+]([O-])c1ncn(C2OC(CO)C(O)C2O)c1S` (centres undefined), the EC50 is more than 200 µM and the IC50 is more than 200 µM.

In the case of `CC1Cc2c(Br)nc(N)nc2NC1=O` (centres undefined), the EC50 was more than 200 µM and the IC50 is more than 200 µM.

Turning to `CN1C(c2ccccc2)CC(=NOCc2ccccc2)CC1c1ccccc1` (centres undefined), the EC50 is more than 200 µM and the IC50 is 8.71 µM.

`c1c[se]c(-c2nc3ccccc3[nH]2)c1`: the EC50 was more than 69.2 µM and the IC50 was more than 69.2 µM.

On to `C=C1CC[C@@H]2C(C)(C)C(O)CCC2(C)C1COc1ccc2ccc(=O)oc2c1` (some centres undefined), for which the EC50 was more than 67.6 µM and the IC50 stood at 36.3 µM.

For `O=C(O)c1cc(N=Nc2ccc(/C=C/c3ccc(N=Nc4cc(C(=O)O)c(O)c5ccccc45)cc3S(=O)(=O)O)c(S(=O)(=O)O)c2)c2ccccc2c1O`, the EC50 was 46.8 µM and the half-inhibitory concentration (IC50) was found to be 72.4 µM.

Regarding `Nn1c(NNC(=O)C(=O)Nc2cc(Cl)c(Cl)cc2Cl)n[nH]c1=S`, the EC50 was more than 123 µM and the IC50 was more than 123 µM.

In the case of `CCOC(=O)C1(Cc2ccc3c(c2)CCC3)Cc2cc3c(cc2C1)CCC3`, the EC50 was more than 200 µM and the IC50 is 15.5 µM.

Turning to `CC1OC(CC(=O)O)CC2=C1C(=O)c1c(O)cccc1C2=O` (centres undefined), the EC50 is more than 120 µM and the half-maximal inhibitory concentration (IC50) was determined as 0.0447 µM.

Consider `COc1ccn(C)c(=O)c1C#N`, for which the EC50 is more than 1510 µM and the IC50 was more than 1510 µM.

Take `Nc1nc2c(C(=O)O)c3ccc([N+](=O)[O-])cc3c(=O)n2c2ccccc12`: the EC50 is more than 200 µM and the IC50 is 15.8 µM.

With `O=C(N/C(=C\c1c(O)ccc2ccccc12)c1nc2ccccc2[nH]1)c1ccccc1`, the EC50 is more than 22.4 µM and the IC50 is more than 22.4 µM.

As to `COC[C@@H](N=CN1CCc2cc(OC)ccc2C1)C(C)C`, the EC50 is more than 871 µM and the IC50 is more than 871 µM.

Turning to `CCOC(=O)C1OC12CCC(C(C)(C)C)CC2` (centres undefined), the EC50 was more than 200 µM and the IC50 is 191 µM.

As to `O=C1CCC(=O)N1C(c1ccccc1)(c1ccccc1)c1ccccc1`, the EC50 is more than 200 µM and the IC50 is more than 200 µM.

With `COc1cc(/C=C/C(=O)OCCc2ccccc2)ccc1O`, the EC50 was more than 8.32 µM and the IC50 came out at 5.13 µM.

In the case of `CCOC(=O)C[C@H]1C(=O)C[C@@H]2C[C@@H](C)CC(=O)[C@@]21CCC#N`, the outcome was inactive.

As to `N#CNC(N)=NC1=CC(=O)C(=O)c2ccccc21`, the EC50 was more than 30.2 µM and the IC50 was 17.4 µM.

As for `CCOC(=O)C1CCn2c(nc3c2c(=O)n(C)c(=O)n3C)S1` (centres undefined), the outcome was inactive.

As to `NC(N)=NS(=O)(=O)c1ccc(Nc2c3ccccc3nc3c(C(=O)NC(CO)(CO)CO)cccc23)cc1`, the EC50 was more than 200 µM and the IC50 worked out at 3.31 µM.

Regarding `N#CC(C#N)=C1C(=O)NC(N)=C1C#N`, the EC50 was more than 200 µM and the IC50 is more than 200 µM.

Turning to `Oc1c2cc(Br)cc1CCc1cc(Br)cc(c1O)CC2`, the EC50 was more than 200 µM and the IC50 was 25.7 µM.

Regarding `COc1cc2cc(C(=O)N3CC(CCl)c4ccc([N+](C)(C)Cc5ccccc5[N+](=O)[O-])cc43)[nH]c2c(OC)c1OC` (centres undefined), the EC50 was more than 20 µM and the IC50 came out at 2.24 µM.

With `COc1ccccc1N1CCN(S(=O)(=O)c2ccc(Cl)cc2)C1=N`, the EC50 was more than 200 µM and the IC50 came to 77.6 µM.

Consider `S=c1sc(-c2ccc(Cl)cc2)nn1CSc1nc2ccccc2o1`, for which the EC50 was more than 200 µM and the IC50 is more than 200 µM.

In the case of `O[C@H]1[C@H](O)[C@@H](O)CN2CC[C@H](O)[C@H]12`, the EC50 was 204 µM and the IC50 is 1260 µM.

For `CCOC(=O)C1=C(C)NC(C)=C(C(=O)OCC)C1c1cccc([N+](=O)[O-])c1`, the result was inactive.

Regarding `Cc1cc2c(cc1C)NC(=O)C(C)CN2` (centres undefined), the EC50 was more than 200 µM and the IC50 is more than 200 µM.

`O=C(N=S(NC(=O)c1ccccc1)C(Cl)(Cl)Cl)c1ccccc1` (centres undefined) had an EC50 of more than 44.7 µM and an IC50 of 16.6 µM.

`O=C(O)C1=C(Cl)c2ccccc2S1(=O)=O`: the outcome was inactive.

`CC(C)CCCC(C)[C@H]1CC[C@@H]2[C@H]3CC[C@H]4C[C@@H](CCC=C(c5cc(Cl)c(OCc6ccccc6[N+](=O)[O-])c(C(=O)OCc6ccccc6[N+](=O)[O-])c5)c5cc(Cl)c(OCc6ccccc6[N+](=O)[O-])c(C(=O)OCc6ccccc6[N+](=O)[O-])c5)CC[C@]4(C)[C@@H]3CC[C@]12C` (some centres undefined): the EC50 was 112 µM and the IC50 was more than 200 µM.

With `Nc1ccc2ccc(N3CCNCC3)nc2n1`, the EC50 is more than 200 µM and the IC50 was determined as 46.8 µM.

Consider `O=C(NS(=O)(=O)Nc1ccccc1)OCc1ccccc1`, for which the EC50 was more than 200 µM and the IC50 was more than 200 µM.
